Measured values: publication PMC8791944, “GLUT3 inhibitor discovery through in silico ligand screening and in vivo validation in eukaryotic expression systems” (Scientific Reports, 2022)

Molecular target: T1, GLUT3 (Homo sapiens, UniProt P11169)
T1 construct: expressed in transfected cells; host or cells: Saccharomyces cerevisiae hxt0 strain EBY.S7 (fgy1)
T1 sequence (P11169 1-496): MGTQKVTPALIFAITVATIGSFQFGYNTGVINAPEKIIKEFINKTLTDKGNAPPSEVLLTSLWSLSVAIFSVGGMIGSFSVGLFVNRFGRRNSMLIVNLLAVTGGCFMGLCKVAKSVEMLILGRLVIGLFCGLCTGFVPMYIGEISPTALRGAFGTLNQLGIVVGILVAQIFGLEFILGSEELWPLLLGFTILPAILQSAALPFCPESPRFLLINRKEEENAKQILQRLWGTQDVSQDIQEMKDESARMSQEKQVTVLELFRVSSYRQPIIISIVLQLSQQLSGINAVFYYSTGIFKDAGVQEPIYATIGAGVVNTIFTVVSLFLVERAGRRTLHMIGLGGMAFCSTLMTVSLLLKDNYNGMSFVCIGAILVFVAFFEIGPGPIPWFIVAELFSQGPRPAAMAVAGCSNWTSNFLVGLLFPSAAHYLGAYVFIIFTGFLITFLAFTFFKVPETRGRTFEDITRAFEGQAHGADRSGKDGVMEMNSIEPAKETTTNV
Assay: Glucose transport assay, wild-type GLUT3 expressed in hxt^0 yeast cells EBY.S7 (C^14-glucose uptake)
Format: cell-based
Details: wild-type GLUT3 in hxt^0 yeast cells, 3 mM glucose, uptake 10 min; read-out: IC50 for GLUT3 transport inhibition
Excerpt: To experimentally validate the ligand candidates determined by the virtual ligand screening, we tested their effect on GLUT3 transport activity. For this, we used the recently established assay system[67] in which GLUT3 is expressed in a yeast strain devoid of endogenous hexose transporters (hxt^0) so that glucose uptake into cells relies solely on the activity of GLUT3.
We determined GLUT3 transport activity by measuring the accumulation of radioactive glucose inside whole hxt^0 yeast cells (see “Materials and methods” for details). To select an appropriate substrate concentration for transport inhibition screening, we assessed the KM of glucose for GLUT3 in hxt^0 cells. […] Indeed, functional expression of human GLUTs in hxt^0 cells often requires mutations in genes related to yeast lipid composition[65],[73] as well as single-site mutations that may favor the outward-facing conformation of the transporters[65]–[67].
Hexose transporter deficient yeast strains (hxt^0) EBY.VW4000 for expression of GLUT5, EBY.S7 (carrying the fgy1 mutation) for expression of GLUT1-3, and SDY.022 (EBY.S7 Δerg4) for expression of GLUT4 cells, and corresponding plasmids[65],[66],[73] were from the labs of Drs. Eckhard Boles and Mislav Oreb (Goethe University, Germany). Media ingredients and buffer components were from VWR or Millipore Sigma. Commercial providers for chemicals tested for GLUT3 inhibition are listed in Supplementary Table S1. C^14-glucose was from Moravek Inc (Brea, CA, USA). Cancer cell lines were from ATCC (https://www.atcc.org).
The plasmids containing functional constructs of GLUT1-5 were transformed in the corresponding hxt^0 strains[65],[66],[73] (EBY.VW4000 for GLUT5S72Y, EBY.S7 for GLUT1, GLUT2∆loopS_Q455R, GLUT3 and GLUT3S66Y, and SDY.022 for GLUT4) and grown on 2% (w/v) agar plates of the respective media supplemented with 1% (w/v) maltose. An initial culture of ~ 10 ml was started with a few colonies and grown for 2–3 days if the media was SC-uracil with 1% (w/v) maltose (GLUT1, GLUT3, GLUT4) or 1–2 days if the media was YEP with 1% (w/v) maltose and 100 µg/ml geneticin G418 (GLUT2∆loopS_Q455R and GLUT5S72Y). Cells were washed once in the corresponding media in which maltose was substituted with 0.1–2% hexose substrate for the expressing GLUT (i.e., SC-uracil, 2% (w/v) glucose for GLUT1; SC-uracil, 0.2% (w/v/) glucose for GLUT3 and GLUT4; YEP, 0.2% (w/v) glucose, 100 µg/ml geneticin G418 for GLUT2∆loopS_Q455R, and YEP, 2% (w/v) fructose for GLUT5 S72Y). Then, cells were transferred in the same media so that OD600nm ~ 0.5 and grown further for 1–2 days.
For transport activity assay, cells in the hexose media were centrifuged (1000×g, 5 min, room temperature), washed once with PBS buffer (10 mM Na2HPO4, 1.8 mM KH2PO4, 2.7 mM KCl, 137 mM NaCl, pH 7.4), and resuspended in PBS buffer at an OD600nm ~ 10; each assay contained 100 µl of this cell solution. Transport activity assay was started by adding C^14-hexose at a substrate concentration corresponding to the respective KM (5 mM glucose for GLUT1 or GLUT4, 3 mM glucose for GLUT3 or 1.5 mM glucose for GLUT3S66Y, 15 mM glucose for GLUT2∆loopS_Q455R, and 10 mM fructose for GLUT5S72Y); for determining the glucose KM in GLUT3 and GLUT3S66Y, substrate concentrations were varied accordingly. […] The filtration membranes were transferred into scintillation vials with 10 ml of Scintillation Solution (BioSafeII; Research Products International, Mount Prospect, IL, USA), and vortexed briefly. The radioactivity was determined with a scintillation counter (Tri-carb 2900TR, Perkin Elmer, USA).

SMILES	IC50
COc1ccccc1-n1c(/C=C/c2ccc(O)cc2)nc2ccc(Br)cc2c1=O [G3iB, 6-bromo-2-[(E)-2-(4-hydroxyphenyl)ethenyl]-3-(2-methoxyphenyl)quinazolin-4(3H)-one]	12.2 ± 4 µM
Cc1cc(NC(=O)CCC2Cc3ccccc3NC2=O)nc(-c2ccccc2)n1 (stereo not drawn) [G3iD]	19.3 ± 4.7 µM
O=C(Nc1cccc(Cl)c1)c1cccc(NC(=O)c2cccc([N+](=O)[O-])c2)c1 [G3iE, N-{3-[(3-chloroanilino)carbonyl]phenyl}-3-nitrobenzamide]	23.6 ± 1.9 µM
Cc1ccccc1CN(Cc1nnc(C(C)(C)C)o1)c1ccc2nc(O)[nH]c2c1 [G3iF]	38.4 ± 11.8 µM
Cc1cccnc1OC1CCN(c2cc(N3CCCC3CO)ncn2)CC1 (stereo not drawn) [G3iC]	12.5 ± 4.4 µM
CC(=O)Nc1ccc(S(=O)(=O)Nc2ccc(Nc3cc(N(C)C)nc(C)n3)cc2)cc1 [G3iA, N-(4-{[(4-{[6-(dimethylamino)-2-methylpyrimidin-4-yl]amino}phenyl)amino]sulfonyl}phenyl)acetamide]	7.01 ± 1.02 µM
